Data as given in patent US6716582B2 (priority 2000, dated 2004).
Like-named read-outs stand apart in the source and are kept apart here.

Key:
[1] = tested on: heat shock regulon luxCDABE gene fusions; assay: heat shock regulon lux fusions: stress response in liquid LB; type: cell-based, E. coli; settings: each of the six heat shock fusion strains; at least two of 5, 4, 3, 2 (v/v)% ethanol
Protocol: (§1) To test the stress responses, one or two single colonies of each selected strain were used to inoculate 5.0 ml of LB medium containing 150 μg/ml of ampicillin. These cultures were grown overnight at 37° C. then diluted by adding 50 μl or 100 μl of the overnight culture into 10.0 ml of fresh LB medium (without ampicillin) and grown with agitation at 37° C. until the culture was in exponential phase with readings on a Klett-Summerson colorimeter containing the red filter of between 10 and 40. These actively growing cultures were immediately used to initiate a stress response experiment by adding 50 μl of cultures to 50 μl of LB medium containing various concentrations of chemical in the wells a 96 well luminometer plate. This division of the actively growing culture at the time of chemical addition ensured identical populations were present when the stress was imposed. Light production was measured in a Dynex ML3000 luminometer at 37° C. The dimensionless units of light production, relative light units (RLU), are obtained by comparison with the light reading from an internal light-emitting diode.

[2] = tested on: clpB-luxCDABE gene fusion; settings: 38 min
From the text: Plasmid DNA was isolated from lux-a.pk043.d3, digested with restriction enzyme XmaI, and ligated with T4 DNA ligase. The ligation reaction was used to transform E. coli strain DPD 1675 by electroporation. Transformants were selected by ampicillin resistance. […] The response to ethanol treatment of two of these light producing transformants that putatively contain inverted chromosomal inserts, of lux-a.pk054.c3 (DPD2243) that contains a plasmid with the clpB promoter operably linked to the luxCDABE reporter and of the original lux-a.pk043.d3 were compared. Actively growing cultures at 37° C. in LB medium were treated with 4% ethanol and light production was quantitated at 37° C. using a microplate luminometer (Dynex ML3000). Table 17 summarizes the average bioluminescence of duplicate samples at 38 min after treatment.

[3] = tested on: SOS regulon luxCDABE gene fusions; assay: SOS regulon lux fusions: stress response in liquid LB; type: cell-based, E. coli
Protocol: as §1
The ability of these promoter-luxCDABE fusions to report activation of the SOS stress response was tested using nalidixic acid, a known, potent chemical inducer. The final concentrations of nalidixic acid were 1, 5, 25, and 125 μg/ml for all but strain DPD2293, which was tested at 80, 40, 20, 10, 5, 2.5, and 1.25 μg/ml.
Specificity of responses was tested by measuring the effect of ethanol on these SOS regulon gene fusions.

[4] = tested on: OxyR regulon ahpC-luxCDABE gene fusions; settings: three ahpC-lux strains; 0.016-0.00025%
Protocol: as §1
To test if these strains would report on activation of the OxyR-controlled oxidative stress response, each was treated with hydrogen peroxide at 0.016, 0.008, 0.004, 0.002, 0.001, 0.0005, 0.00025%.

[5] = tested on: ahpC-luxCDABE gene fusions in pcnB- host; settings: both ahpC-lux fusions in pcnB- host; 0.004-0.00006%, all seven concentrations
Protocol: as §1

[6] = tested on: E. coli strain MG1655 gene expression; assay: DNA microarray experiment with mitomycin C; type: cell-based; settings: MMC 250 ng/ml, 40 min
Protocol: The E. coli strain MG1655 (rph-1) was used. Cultures grown in LB at 37° C. overnight were diluted 1 to 250 into fresh LB and grown at 37° C. with aeration. Each subculture was split into two 100 ml cultures when the reading on a Klett-Sammerson calorimeter with the red filter reads 20 Klett units. MMC (Sigma, dissolved in ddH2O) at a final concentration of 250 ng/ml, a sub-lethal dose, was added to one of the split cultures. The other culture was a no addition control. Incubation at 37° C. continued for another 40 minutes, then cells were collected for preparing total RNA. The MMC treated culture and its control reached 60 and 55 Klett units, respectively after 40 minute treatment.
Total RNA purification, first-strand cDNA labeling, preparation of the E. coli whole genome high-density microarray chips, hybridization and data analysis were done as previously described (Wei et al. (2001) J. Bacteriol. 183: 545-556). Both cy3 and cy5 were used in probe labeling, and the hybridization experiments were repeated by swapping the fluorescence cy dyes between each pair of MMC treated sample and its blank control.
Ratios of expression in the mitomycin C treated samples vs. controls were calculated for all genes in the DNA array. Ratios greater than or equal to 2 were considered induced genes, while those with ratios less than 2 fold were considered uninduced. The known SOS genes (Kim et al., (1997) Proc Natl Acad Sci USA Dec. 9, 1997; 94(25):13792-7; Lomba et al., (1997) FEMS Microbiol Lett 156:119-122; Walker, G. C. (1996). In Escherichia coli and Salmonella: Cellular and Molecular Biology. ASM Press pp.1400-1416) fell into both the induced (Table 11) and uninduced classes (Table 12).

yebF-luxCDABE fusion = assay: inverted yebF-luxCDABE fusion induction by DNA damaging agents; type: cell-based, E. coli; settings: yebF-luxCDABE fusion; mitomycin C, FIG. 2
From the text: In this case, a divergent promoter to the purT gene was present in the chromosomal fragment and strains containing the backward yebF fusion produced light. Following isolation of plasmid DNA, XmaI digestion that releases the insert DNA from the vector, religation and transformation, 10% of the transformants produced light. […] The orientation of the inserted segment to yield a fusion of yebF to the luxCDABE operon was confirmed by DNA sequence analysis.
To test inverting of a chromosomal segment in a plasmid containing divergent promoters, the backward fusion to yebF was chosen. […] In this case, a divergent promoter to the purT gene was present in the chromosomal fragment and strains containing the backward yebF fusion produced light. Following XmaI digestion, religation and transformation, 10% of the transformants produced light. […] This was verified by DNA sequence analysis. Thus, inverting chromosomal segments containing divergent promoters is possible and is facilitated if the two promoters can be distinguished by their biological activity.

[7] = tested on: luxCDABE gene fusions to MMC array genes; assay: Lux-A Collection fusions tested for MMC induction; type: cell-based, E. coli
Protocol: The Lux-A Collection of reporter gene fusions was examined for presence of fusions to the genes in Table 11. […] Each of these was tested for induction by MMC at several doses over a time course of 100 minutes.
As expected, the expression of the known SOS genes was elevated; however the expression of several was elevated less than 2-fold (Table 12) and as such were within a large group of 792 genes the expression of which was elevated by 20% or more. Most of these are likely due to artifacts in the array data rather than to actual biologically relevant responses. To test if strains carrying luxCDABE gene fusions would yield the expected positive result, the three gene fusions that were available in the Lux-A Collection of reporter gene fusions were tested for mitomycin C responses.

[8] = tested on: SoxR/S regulon luxCDABE gene fusions; assay: SoxR/S regulon lux fusions: stress response in liquid LB; type: cell-based, E. coli; settings: each of four strains; 1000-16 μg/ml, all seven concentrations
Protocol: Like the SOS and heat shock regulon fusions, these had basal light production greater than the promoterless parental plasmid indicating the presence of a promoter. Responsiveness of four of these strains to a known inducer of the SoxR/S regulon, methyl viologen, was tested at 1000, 500, 250, 125, 62, 31 and 16 μg/ml. […] Table 8 gives the response ratio for 250 μg/ml at 120 minutes of treatment for the four tested strains. Here again, the biologically appropriate response was observed.

## CCO [Ethanol]
[1]
  bioluminescence vs untreated control: increased bioluminescence
[2]; Inverted lux-a.pk043.d3, second isolate
  Light production in LB + 4% ethanol: 29.63 RLU
[2]; inverted lux-a.pk043.d3, first isolate
  Light production in LB + 4% ethanol: 8.17 RLU
[3]; DPD2249 dinP-lux, 3% ethanol, 40 min
  response ratio: 0.80
[3]; SOS regulon fusions, 5, 4, or 3% (v/v) ethanol
  bioluminescence vs untreated control: little to no increased bioluminescence

## OO [H2O2, hydrogen peroxide]
[4]
  bioluminescence induction: minimally induced
[5]
  bioluminescence induction: dramatically induced increased bioluminescence

## CO[C@@]12[C@H](COC(N)=O)C3=C(C(=O)C(C)=C(N)C3=O)N1C[C@@H]1N[C@@H]12 [MMC, mitomycin C]
[6]; b0531
  Fold induction/array expt: 3.3
[6]; b0571 (ylcA)
  Fold induction/array expt: 2.2
[6]; b1228
  Fold induction/array expt: 2.5
[6]; b1847 (yebF)
  Fold induction/array expt: 3.3
[6]; b1848 (yebG)
  Fold induction/array experiment: 5.8
[6]; b2559
  Fold induction/array expt: 2.0
[6]; b2940
  Fold induction/array expt: 2.3
[6]; b3199
  Fold induction/array expt: 2.0
[6]; cspA
  Fold induction/array expt: 2.9
[6]; dinB (dinP)
  Fold induction/array experiment: 2.0
[6]; dinD
  Fold induction/array experiment: 2.2
[6]; dinF
  Fold induction/array experiment: 1.8
[6]; dinG
  Fold induction/array experiment: 1.4
[6]; dinI
  Fold induction/array experiment: 6.7
[6]; dniR
  Fold induction/array expt: 2.1
[6]; exbD
  Fold induction/array expt: 2.2
[6]; himA
  Fold induction/array experiment: 1.3
[6]; hslS
  Fold induction/array expt: 6.7
[6]; hslT
  Fold induction/array expt: 4.0
[6]; infA
  Fold induction/array expt: 2.3
[6]; insA_4
  Fold induction/array expt: 2.1
[6]; insB_1
  Fold induction/array expt: 2.1
[6]; insB_2
  Fold induction/array expt: 2.2
[6]; lexA
  Fold induction/array experiment: 3.6
[6]; mioC
  Fold induction/array expt: 2.1
[6]; polB (dinA)
  Fold induction/array experiment: 1.2
[6]; recA
  Fold induction/array experiment: 3.0
[6]; recN
  Fold induction/array experiment: 8.3
[6]; ruvA
  Fold induction/array experiment: 2.0
[6]; ruvB
  Fold induction/array experiment: 1.5
[6]; secG
  Fold induction/array expt: 2.2
[6]; sulA
  Fold induction/array experiment: 5.8
[6]; trkH
  Fold induction/array expt: 2.1
[6]; umuC
  Fold induction/array experiment: 2.1
[6]; umuD
  Fold induction/array experiment: 1.2
[6]; uvrA
  Fold induction/array experiment: 2.3
[6]; uvrB
  Fold induction/array experiment: 2.1
[6]; uvrD
  Fold induction/array experiment: 1.4
[6]; xseA
  Fold induction/array expt: 2.0
yebF-luxCDABE fusion
  induction of bioluminescence: induction by mitomycin C was demonstrated
[7]; four fusions to genes not previously known MMC inducible
  gene expression response: no evidence of increased gene expression
[7]; four fusions to known SOS genes of Table 11, several doses, 100 min time course
  induction response: induction of increased bioluminescence
[7]; three fusions to SOS genes of Table 12
  bioluminescence response: induced increased bioluminescence

## C[n+]1ccc(-c2cc[n+](C)cc2)cc1 [Methyl viologen, methyl viologen]
[8]
  bioluminescence vs untreated control: induced increased bioluminescence
